# Results from patent publication US20240150298A1, “ANTIBACTERIAL COMPOUNDS” (Blacksmith Medicines, Inc., priority 2021, published 2024).
# Columns and labels:
# K. pneumoniae LpxC = K. pneumoniae LpxC (Klebsiella pneumoniae subsp. pneumoniae, UniProt A6T4N9); assay: LpxC Binding Assay (Rapid Fire MS assay); format: biochemical
# P. aeruginosa 209 PAO1 = assay: Bacterial susceptibility testing, MIC by broth microdilution (CLSI); format: cell-based; conditions: Pseudomonas aeruginosa, PAO1, broth microdilution, 35° C., 18-24 h; read-out: MIC P. aeruginosa 209 PAO1
# Procedure, shortened: (§1)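 Broth microdilution per CLSI in cation-adjusted Mueller-Hinton broth, inoculum 3×10^5–7×10^5 CFU/mL, 2-fold serial drug dilutions in DMSO. Incubated in ambient air at 35° C for 18-24 h. MIC taken as lowest concentration preventing visible growth (OD600 nm<0.05).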
# E. coli ATCC25922 = assay: as above; format: cell-based; conditions: Escherichia coli, ATCC25922, broth microdilution, 35° C., 18-24 h; read-out: MIC E. coli ATCC25922
# Procedure, shortened: as §1
# K. pneumoniae ATCC13883 = assay: as above; format: cell-based; conditions: Klebsiella pneumoniae, ATCC13883, broth microdilution, 35° C., 18-24 h; read-out: MIC K. pneumoniae ATCC13883
# Procedure, shortened: as §1
# P. aeruginosa ATCC27835 = assay: as above; format: cell-based; conditions: Pseudomonas aeruginosa, ATCC27835, broth microdilution, 35° C., 18-24 h; read-out: MIC P. aeruginosa ATCC27835
# Procedure, shortened: as §1
# E. coli LpxC = E. coli LpxC (Escherichia coli, UniProt P0A725); assay: LpxC Binding Assay (Rapid Fire MS assay); format: biochemical
# Method: (§2) IC50 values against E. coli and P. aeruginosa LpxC are determined using a Rapid Fire MS assay as previously described J. Med. Chem. 2012, 55, 1662-1670.
# P. aeruginosa LpxC = biological target: T1, P. aeruginosa LpxC (Pseudomonas aeruginosa, UniProt P47205); assay: LpxC Binding Assay (Rapid Fire MS assay); format: biochemical
# T1 sequence (P47205 1-303): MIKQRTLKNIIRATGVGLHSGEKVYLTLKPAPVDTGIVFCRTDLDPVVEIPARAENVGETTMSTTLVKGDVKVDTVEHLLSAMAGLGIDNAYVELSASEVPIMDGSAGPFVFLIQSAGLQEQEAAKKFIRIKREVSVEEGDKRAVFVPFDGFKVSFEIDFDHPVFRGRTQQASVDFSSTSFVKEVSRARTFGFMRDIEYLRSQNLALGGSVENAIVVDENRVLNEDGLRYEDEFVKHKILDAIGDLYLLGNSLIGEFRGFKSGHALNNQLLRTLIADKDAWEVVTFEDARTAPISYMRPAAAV
# Method: as §2
# E. coli LpxC, sequence (P0A725 whole entry): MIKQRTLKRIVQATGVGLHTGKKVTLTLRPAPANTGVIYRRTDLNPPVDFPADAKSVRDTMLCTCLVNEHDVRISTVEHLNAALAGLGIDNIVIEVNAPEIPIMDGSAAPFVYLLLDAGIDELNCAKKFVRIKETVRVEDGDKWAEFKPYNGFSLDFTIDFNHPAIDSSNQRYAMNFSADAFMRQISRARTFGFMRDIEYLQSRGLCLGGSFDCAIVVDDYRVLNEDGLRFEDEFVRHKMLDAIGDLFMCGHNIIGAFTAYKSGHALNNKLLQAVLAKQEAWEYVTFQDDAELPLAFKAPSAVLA
# K. pneumoniae LpxC, sequence (A6T4N9 whole entry): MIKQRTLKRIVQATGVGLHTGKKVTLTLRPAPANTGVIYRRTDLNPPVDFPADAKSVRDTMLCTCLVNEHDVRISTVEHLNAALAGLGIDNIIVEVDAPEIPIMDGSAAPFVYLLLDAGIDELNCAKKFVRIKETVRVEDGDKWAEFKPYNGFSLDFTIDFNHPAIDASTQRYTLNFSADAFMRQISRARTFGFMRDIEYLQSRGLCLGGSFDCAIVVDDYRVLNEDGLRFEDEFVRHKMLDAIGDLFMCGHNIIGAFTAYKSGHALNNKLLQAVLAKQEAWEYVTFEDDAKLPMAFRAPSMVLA
SMILES,IC50 (K. pneumoniae LpxC) [nM],MIC (P. aeruginosa 209 PAO1) [µg/mL],MIC (E. coli ATCC25922) [µg/mL],MIC (K. pneumoniae ATCC13883) [µg/mL],MIC (P. aeruginosa ATCC27835) [µg/mL],IC50 (E. coli LpxC) [nM],IC50 (P. aeruginosa LpxC) [nM]
"C[C@H](O)c1nccn1[C@@H](/C=C/c1ccc(-c2ccc(OC3CCN(CCO)CC3)cc2)cc1)CCO [Compound 18, (R,E)-3-(2-((S)-1-hydroxyethyl)-1H-imidazol-1-yl)-5-(4′-((1-(2-hydroxyethyl)piperidin-4-yl)oxy)-[1,1′-biphenyl]-4-yl)pent-4-en-1-ol]",5.4,4,8,16,4,3.6,50.1
"C[C@H](O)c1nccn1[C@@H](/C=C/c1ccc(-c2ccc(C3CC(O)C3)cc2)cc1)CO (stereo partly drawn) [Compound 39, 3-(4′-((S,E)-4-hydroxy-3-(2-((S)-1-hydroxyethyl)-1H-imidazol-1-yl)but-1-en-1-yl)-[1,1′-biphenyl]-4-yl)cyclobutan-1-ol]",0.6,1,,0.5,4,< 0.5,12.6
"C[C@H](O)c1nccn1[C@@H](/C=C/c1ccc(-c2ccc(OC[C@H](O)CN)cc2)cc1)CO [Compound 29, (S,E)-4-(4′-((R)-3-amino-2-hydroxypropoxy)-[1,1′-biphenyl]-4-yl)-2-(2-((S)-1-hydroxyethyl)-1H-imidazol-1-yl)but-3-en-1-ol]",9.1,8,32,64,4,5.9,120
"C[C@H](O)c1nccn1[C@@H](/C=C/c1ccc(-c2ccc(OC[C@@H](O)CO)cc2F)cc1)CO [Compound 32, (S)-3-((2-fluoro-4′-((S,E)-4-hydroxy-3-(2-((S)-1-hydroxyethyl)-1H-imidazol-1-yl)but-1-en-1-yl)-[1,1′-biphenyl]-4-yl)oxy)propane-1,2-diol]",1.8,4,2,8,4,1,13.4
"C[C@H](O)c1nccn1[C@@H](/C=C/c1ccc(-c2ccc(C3CC(N4CC(O)C4)C3)cc2)cc1)CO (stereo partly drawn) [Compound 38, 1-(3-(4′-((S,E)-4-hydroxy-3-(2-((S)-1-hydroxyethyl)-1H-imidazol-1-yl)but-1-en-1-yl)-[1,1′-biphenyl]-4-yl)cyclobutyl)azetidin-3-ol]",1.6,2,,2,2,0.9,27.5
"C[C@H](O)c1nccn1[C@@H](/C=C/c1ccc(-c2ccc(OC[C@@H](O)CO)cc2)cc1)CO [Compound 24, (S)-3-((4′-((S,E)-4-hydroxy-3-(2-((S)-1-hydroxyethyl)-1H-imidazol-1-yl)but-1-en-1-yl)-[1,1′-biphenyl]-4-yl)oxy)propane-1,2-diol]",1.1,2,2,8,2,0.5,17.5
"COC(CN)COc1ccc(-c2ccc(/C=C/[C@@H](CO)n3ccnc3[C@H](C)O)cc2)cc1 (mixture of isomers) [Compound 27, (2S,E)-4-(4′-(3-amino-2-methoxypropoxy)-[1,1′-biphenyl]-4-yl)-2-(2-((S)-1-hydroxyethyl)-1H-imidazol-1-yl)but-3-en-1-ol]",6.2,4,8,32,4,2.9,41.2
"C[C@H](O)c1nccn1[C@@H](/C=C/c1ccc(-c2ccc(O[C@H]3COC[C@@H]3N)cc2)cc1)CO (racemic) [Compound 34, (S,E)-4-(4′-(((trans)-4-aminotetrahydrofuran-3-yl)oxy)-[1,1′-biphenyl]-4-yl)-2-(2-((S)-1-hydroxyethyl)-1H-imidazol-1-yl)but-3-en-1-ol]",1.9,0.5,,2,4,1.1,18.9
"C[C@H](O)c1nccn1[C@@H](/C=C/c1ccc(-c2ccc(OCC(CO)CO)cc2)cc1)CO [Compound 33, 2-(((4′-((S,E)-4-hydroxy-3-(2-((S)-1-hydroxyethyl)-1H-imidazol-1-yl)but-1-en-1-yl)-[1,1′-biphenyl]-4-yl)oxy)methyl)propane-1,3-diol]",1.6,2,,8,4,1,11.9
"C[C@H](O)c1nccn1[C@@H](/C=C/c1ccc(-c2ccc(OC3CCN(CCO)CC3)cc2)cc1)CO [Compound 17, (S,E)-2-(2-((S)-1-hydroxyethyl)-1H-imidazol-1-yl)-4-(4′-((1-(2-hydroxyethyl)piperidin-4-yl)oxy)-[1,1′-biphenyl]-4-yl)but-3-en-1-ol]",6.3,4,4,16,4,4.2,66.4
"C[C@H](O)c1nccn1[C@@H](/C=C(\F)c1ccc(-c2ccc(OCC(O)CN)cc2)cc1)CO (single isomer, unassigned) [Compound 30, (S,Z)-4-(4′-((R)-3-amino-2-hydroxypropoxy)-[1,1′-biphenyl]-4-yl)-4-fluoro-2-(2-((S)-1-hydroxyethyl)-1H-imidazol-1-yl)but-3-en-1-ol; or (S,Z)-4-(4′-((S)-3-amino-2-hydroxypropoxy)-[1,1′-biphenyl]-4-yl)-4-fluoro-2-(2-((S)-1-hydroxyethyl)-1H-imidazol-1-yl)but-3-en-1-ol]",7.6,8,16,32,8,5,79.5
"C[C@H](O)c1nccn1[C@@H](/C=C/c1ccc(-c2ccc(C3CC(NCCC#N)C3)cc2)cc1)CO (stereo partly drawn) [Compound 37, 3-((3-(4′-((S,E)-4-hydroxy-3-(2-((S)-1-hydroxyethyl)-1H-imidazol-1-yl)but-1-en-1-yl)-[1,1′-biphenyl]-4-yl)cyclobutyl)amino)propanenitrile]",0.7,2,,0.5,4,< 0.5,15.2
"C[C@H](O)c1nccn1[C@@H](/C=C/c1ccc(-c2ccc(OCCN(CCO)CCO)cc2)cc1)CO [Compound 28, 2,2′-((2-((4′—((S,E)-4-hydroxy-3-(2-((S)-1-hydroxyethyl)-1H-imidazol-1-yl)but-1-en-1-yl)-[1,1′-biphenyl]-4-yl)oxy)ethyl)azanediyl)bis(ethan-1-ol)]",4.3,4,4,16,4,2.6,36.9
C[C@H](O)c1nccn1[C@@H](/C=C(\F)c1ccc(-c2ccc(OCC(N)CO)cc2)cc1)CO (mixture of isomers) [Compound 11],4,1,4,16,2,2.7,31.3
"C[C@H](O)c1nccn1[C@@H](/C=C/c1ccc(-c2ccc(O[C@H]3COC[C@@H]3O)cc2)cc1)CO (racemic) [Compound 35, (trans)-4-((4′-((S,E)-4-hydroxy-3-(2-((S)-1-hydroxyethyl)-1H-imidazol-1-yl)but-1-en-1-yl)-[1,1′-biphenyl]-4-yl)oxy)tetrahydrofuran-3-ol]",0.9,1,,2,4,< 0.5,8.2
"C[C@H](O)c1nccn1[C@@H](/C=C/c1ccc(-c2ccc(OCC(N)CO)cc2)cc1)CCO (mixture of isomers) [Compound 19, (3R,E)-5-(4′-(2-amino-3-hydroxypropoxy)-[1,1′-biphenyl]-4-yl)-3-(2-((S)-1-hydroxyethyl)-1H-imidazol-1-yl)pent-4-en-1-ol]",8,4,8,64,4,5.1,62.3
